Converted amounts (≈) assume the structure as drawn.
How the values were obtained:
Format in all cases: functional
Escherichia coli [1] = experiment: Antibacterial activity against Escherichia coli at 2 mg/ml by agar diffusion method; settings: read-out: DIZ
Bacillus thuringiensis [2] = experiment: Antibacterial activity against Bacillus thuringiensis at 2 mg/ml by agar diffusion method; settings: read-out: DIZ
Escherichia coli [3] = experiment: Antibacterial activity against Escherichia coli by twofold serial broth dilution method
Bacillus thuringiensis [4] = experiment: Antibacterial activity against Bacillus thuringiensis by twofold serial broth dilution method

| SMILES | MIC (Escherichia coli [3]) [µg/mL] | MIC (Bacillus thuringiensis [4]) [µg/mL] | zone of inhibition at 2000 µg/mL (Escherichia coli [1]) [mm] | zone of inhibition at 2000 µg/mL (Bacillus thuringiensis [2]) [mm] |
| --- | --- | --- | --- | --- |
| N#C/C(C(=O)N1NC(=O)C2C3c4ccccc4C(c4ccccc43)C2C1=O)=C1\SCCN1c1ccccc1 (stereo unspecified) | 50 (≈ 96.4 µM) | 12.5 (≈ 24.1 µM) | 15 | 22 |
| N#C/C(C(=O)N1NC(=O)C2C3c4ccccc4C(c4ccccc43)C2C1=O)=C1\SC=C(c2ccccc2)N1c1ccccc1 (stereo unspecified) | 6 (≈ 10.1 µM) | 6 (≈ 10.1 µM) | 40 | 39 |
| N#C/C(C(=O)N1NC(=O)C2C3c4ccccc4C(c4ccccc43)C2C1=O)=C1\SCC(=O)N1c1ccccc1 (stereo unspecified) | 12.5 (≈ 23.5 µM) | 12.5 (≈ 23.5 µM) | 26 | 24 |
| CC1(C)S[C@@H]2[C@H](NC(=O)[C@H](N)c3ccccc3)C(=O)N2[C@H]1C(=O)O [AMPICILLIN] | 12.5 (≈ 35.8 µM) | 12.5 (≈ 35.8 µM) | 19 | 18 |
| N#C/C(C(=O)N1NC(=O)C2C3c4ccccc4C(c4ccccc43)C2C1=O)=C1\SC(=O)CN1c1ccccc1 (stereo unspecified) |  |  | 18 | 17 |
| COc1ccc(/C=c2\c(=O)s/c(=C(\C#N)C(=O)N3NC(=O)C4C5c6ccccc6C(c6ccccc65)C4C3=O)n2-c2ccccc2)cc1 (stereo unspecified) |  |  | 13 | 11 |
| O=C1NN(c2nc(-c3ccccc3)c(Br)s2)C(=O)C2C3c4ccccc4C(c4ccccc43)C12 (stereo unspecified) |  |  | 12 |  |
| N#C/C(C(=O)N1NC(=O)C2C3c4ccccc4C(c4ccccc43)C2C1=O)=C(\S)Nc1ccccc1 (stereo unspecified) | 12.5 (≈ 25.4 µM) | 12.5 (≈ 25.4 µM) | 22 | 22 |
| CC(=O)c1sc(Nc2ccccc2)c(C(=O)N2NC(=O)C3C4c5ccccc5C(c5ccccc54)C3C2=O)c1N (stereo unspecified) |  |  | 13 | 15 |
| N#C/C(C(=O)N1NC(=O)C2C3c4ccccc4C(c4ccccc43)C2C1=O)=c1\sc(=O)/c(=C2\C(=O)Nc3ccccc32)n1-c1ccccc1 (stereo unspecified) |  |  | 15 | 15 |
| N#C/C(C(=O)N1NC(=O)C2C3c4ccccc4C(c4ccccc43)C2C1=O)=C1\SCCCN1c1ccccc1 (stereo unspecified) | 12.5 (≈ 23.5 µM) | 50 (≈ 93.9 µM) | 25 | 19 |
| O=C1NN(c2nc(-c3ccccc3)cs2)C(=O)C2C3c4ccccc4C(c4ccccc43)C12 (stereo unspecified) | 50 (≈ 111 µM) | 12.5 (≈ 27.8 µM) | 15 | 23 |
| N#C/C(C(=O)N1NC(=O)C2C3c4ccccc4C(c4ccccc43)C2C1=O)=c1\sc(=O)c(=C2C(=O)c3ccccc3C2=O)n1-c1ccccc1 (stereo unspecified) | 12.5 (≈ 18.5 µM) | 50 (≈ 74.1 µM) | 25 | 19 |
| CN(C)/C=N/N1C(=O)C2C3c4ccccc4C(c4ccccc43)C2C1=O (stereo unspecified) | 12.5 (≈ 36.2 µM) | 50 (≈ 145 µM) | 21 | 20 |

Second part, led by results:

| MIC (Escherichia coli [3]) [µg/mL] | MIC (Bacillus thuringiensis [4]) [µg/mL] | SMILES | zone of inhibition at 2000 µg/mL (Escherichia coli [1]) [mm] | zone of inhibition at 2000 µg/mL (Bacillus thuringiensis [2]) [mm] |
| --- | --- | --- | --- | --- |
| 50 (≈ 129 µM) | 6 (≈ 15.5 µM) | Cc1csc(N2NC(=O)C3C4c5ccccc5C(c5ccccc54)C3C2=O)n1 (stereo unspecified) | 16 | 40 |
| 12.5 (≈ 38.7 µM) | 12.5 (≈ 38.7 µM) | O=C(N[C@H](CO)[C@H](O)c1ccc([N+](=O)[O-])cc1)C(Cl)Cl [CHLORAMPHENICOL] | 19 | 23 |
| 12.5 (≈ 32.1 µM) | 12.5 (≈ 32.1 µM) | O=C1CSC(N2NC(=O)C3C4c5ccccc5C(c5ccccc54)C3C2=O)=N1 (stereo unspecified) | 26 | 24 |
| 12.5 (≈ 20.5 µM) | 50 (≈ 81.9 µM) | Nc1c(C(=O)c2ccccc2)sc(Nc2ccccc2)c1C(=O)N1NC(=O)C2C3c4ccccc4C(c4ccccc43)C2C1=O (stereo unspecified) | 20 | 17 |
| 12.5 (≈ 23.5 µM) |  | N#Cc1sc(Nc2ccccc2)c(C(=O)N2NC(=O)C3C4c5ccccc5C(c5ccccc54)C3C2=O)c1N (stereo unspecified) | 20 |  |
| 12.5 (≈ 23.6 µM) | 12.5 (≈ 23.6 µM) | CC1=CS/C(=C(\C#N)C(=O)N2NC(=O)C3C4c5ccccc5C(c5ccccc54)C3C2=O)N1c1ccccc1 (stereo unspecified) | 30 | 28 |
| 12.5 (≈ 25.5 µM) | 6 (≈ 12.2 µM) | N#C/C(C(=O)N1NC(=O)C2C3c4ccccc4C(c4ccccc43)C2C1=O)=C1/Nc2ccccc2S1 (stereo unspecified) | 26 | 30 |
